This note sets out measurements from patent publication US10344060B2 (priority 2013, dated 2019).

Assay in all cases: cell-based
The target in one experiment is hNav1.4 (Homo sapiens, UniProt P35499). The experiment is classed as cell-based. The conditions noted are these: for Nav1.4/Nav1.7: ratio of PX tonic IC50 values.
A further experiment has as its target hNav1.5 (Homo sapiens, UniProt Q14524). The conditions noted are these: for Nav1.5/Nav1.7: ratio of PX tonic IC50 values.
A further experiment deals with hNav1.7 (Homo sapiens, UniProt Q15858). The experiment is classed as cell-based. The conditions noted are these: Table 12; PatchXpress, tonic block; read-out: PX hNav1.7 Tonic IC50.

Chain of hNav1.5 (Q14524 whole entry): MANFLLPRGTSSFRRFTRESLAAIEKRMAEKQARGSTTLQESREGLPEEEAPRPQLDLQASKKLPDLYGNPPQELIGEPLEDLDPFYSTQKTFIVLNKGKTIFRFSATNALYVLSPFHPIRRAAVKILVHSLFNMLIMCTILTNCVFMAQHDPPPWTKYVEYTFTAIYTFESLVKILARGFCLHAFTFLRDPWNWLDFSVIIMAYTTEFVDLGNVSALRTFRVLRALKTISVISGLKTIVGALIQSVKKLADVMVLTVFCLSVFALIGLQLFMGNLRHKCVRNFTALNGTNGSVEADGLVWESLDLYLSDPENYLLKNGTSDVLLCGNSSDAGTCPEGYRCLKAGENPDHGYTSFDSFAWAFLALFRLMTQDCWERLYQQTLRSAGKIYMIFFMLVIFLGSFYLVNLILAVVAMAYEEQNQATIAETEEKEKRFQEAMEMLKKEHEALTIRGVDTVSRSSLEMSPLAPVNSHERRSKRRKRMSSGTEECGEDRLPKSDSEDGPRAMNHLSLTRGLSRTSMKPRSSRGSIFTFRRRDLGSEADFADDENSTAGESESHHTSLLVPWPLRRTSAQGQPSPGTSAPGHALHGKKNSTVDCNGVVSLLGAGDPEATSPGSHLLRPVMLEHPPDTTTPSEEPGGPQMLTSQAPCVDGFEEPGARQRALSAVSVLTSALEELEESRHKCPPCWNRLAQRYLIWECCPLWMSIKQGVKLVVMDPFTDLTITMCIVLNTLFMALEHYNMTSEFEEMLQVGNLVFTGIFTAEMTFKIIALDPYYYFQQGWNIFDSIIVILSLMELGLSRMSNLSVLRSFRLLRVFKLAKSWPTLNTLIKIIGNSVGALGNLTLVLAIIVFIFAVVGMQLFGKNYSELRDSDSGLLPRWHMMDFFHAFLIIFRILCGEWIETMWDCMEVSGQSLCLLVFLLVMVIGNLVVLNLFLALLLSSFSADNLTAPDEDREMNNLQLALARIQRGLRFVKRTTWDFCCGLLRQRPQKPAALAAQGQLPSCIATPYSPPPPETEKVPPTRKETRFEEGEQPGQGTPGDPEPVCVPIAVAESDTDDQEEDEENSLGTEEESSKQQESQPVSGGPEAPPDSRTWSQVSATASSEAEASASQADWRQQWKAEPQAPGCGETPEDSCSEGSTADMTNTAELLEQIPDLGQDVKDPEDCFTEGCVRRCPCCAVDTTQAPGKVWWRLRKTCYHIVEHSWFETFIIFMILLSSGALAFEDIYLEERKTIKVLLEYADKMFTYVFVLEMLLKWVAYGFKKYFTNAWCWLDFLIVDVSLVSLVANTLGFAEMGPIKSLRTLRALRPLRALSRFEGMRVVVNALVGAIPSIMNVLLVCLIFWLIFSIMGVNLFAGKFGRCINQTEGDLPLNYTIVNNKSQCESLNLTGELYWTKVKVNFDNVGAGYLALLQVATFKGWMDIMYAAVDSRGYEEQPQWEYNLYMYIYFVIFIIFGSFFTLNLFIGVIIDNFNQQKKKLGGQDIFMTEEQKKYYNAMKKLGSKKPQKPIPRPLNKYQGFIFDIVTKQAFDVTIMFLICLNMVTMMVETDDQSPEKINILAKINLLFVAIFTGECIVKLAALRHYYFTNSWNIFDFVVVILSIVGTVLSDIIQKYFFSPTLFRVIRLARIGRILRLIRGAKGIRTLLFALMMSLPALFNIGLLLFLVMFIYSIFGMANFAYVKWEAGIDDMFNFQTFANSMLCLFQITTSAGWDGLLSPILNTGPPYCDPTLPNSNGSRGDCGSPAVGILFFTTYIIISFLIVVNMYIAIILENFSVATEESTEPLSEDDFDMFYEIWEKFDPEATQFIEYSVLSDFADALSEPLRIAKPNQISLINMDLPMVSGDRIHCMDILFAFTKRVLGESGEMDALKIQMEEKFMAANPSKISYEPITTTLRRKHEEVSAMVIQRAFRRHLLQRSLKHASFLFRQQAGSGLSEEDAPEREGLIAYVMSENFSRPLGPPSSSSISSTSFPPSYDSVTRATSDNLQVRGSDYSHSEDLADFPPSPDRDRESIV
Chain of hNav1.4 (P35499 whole entry): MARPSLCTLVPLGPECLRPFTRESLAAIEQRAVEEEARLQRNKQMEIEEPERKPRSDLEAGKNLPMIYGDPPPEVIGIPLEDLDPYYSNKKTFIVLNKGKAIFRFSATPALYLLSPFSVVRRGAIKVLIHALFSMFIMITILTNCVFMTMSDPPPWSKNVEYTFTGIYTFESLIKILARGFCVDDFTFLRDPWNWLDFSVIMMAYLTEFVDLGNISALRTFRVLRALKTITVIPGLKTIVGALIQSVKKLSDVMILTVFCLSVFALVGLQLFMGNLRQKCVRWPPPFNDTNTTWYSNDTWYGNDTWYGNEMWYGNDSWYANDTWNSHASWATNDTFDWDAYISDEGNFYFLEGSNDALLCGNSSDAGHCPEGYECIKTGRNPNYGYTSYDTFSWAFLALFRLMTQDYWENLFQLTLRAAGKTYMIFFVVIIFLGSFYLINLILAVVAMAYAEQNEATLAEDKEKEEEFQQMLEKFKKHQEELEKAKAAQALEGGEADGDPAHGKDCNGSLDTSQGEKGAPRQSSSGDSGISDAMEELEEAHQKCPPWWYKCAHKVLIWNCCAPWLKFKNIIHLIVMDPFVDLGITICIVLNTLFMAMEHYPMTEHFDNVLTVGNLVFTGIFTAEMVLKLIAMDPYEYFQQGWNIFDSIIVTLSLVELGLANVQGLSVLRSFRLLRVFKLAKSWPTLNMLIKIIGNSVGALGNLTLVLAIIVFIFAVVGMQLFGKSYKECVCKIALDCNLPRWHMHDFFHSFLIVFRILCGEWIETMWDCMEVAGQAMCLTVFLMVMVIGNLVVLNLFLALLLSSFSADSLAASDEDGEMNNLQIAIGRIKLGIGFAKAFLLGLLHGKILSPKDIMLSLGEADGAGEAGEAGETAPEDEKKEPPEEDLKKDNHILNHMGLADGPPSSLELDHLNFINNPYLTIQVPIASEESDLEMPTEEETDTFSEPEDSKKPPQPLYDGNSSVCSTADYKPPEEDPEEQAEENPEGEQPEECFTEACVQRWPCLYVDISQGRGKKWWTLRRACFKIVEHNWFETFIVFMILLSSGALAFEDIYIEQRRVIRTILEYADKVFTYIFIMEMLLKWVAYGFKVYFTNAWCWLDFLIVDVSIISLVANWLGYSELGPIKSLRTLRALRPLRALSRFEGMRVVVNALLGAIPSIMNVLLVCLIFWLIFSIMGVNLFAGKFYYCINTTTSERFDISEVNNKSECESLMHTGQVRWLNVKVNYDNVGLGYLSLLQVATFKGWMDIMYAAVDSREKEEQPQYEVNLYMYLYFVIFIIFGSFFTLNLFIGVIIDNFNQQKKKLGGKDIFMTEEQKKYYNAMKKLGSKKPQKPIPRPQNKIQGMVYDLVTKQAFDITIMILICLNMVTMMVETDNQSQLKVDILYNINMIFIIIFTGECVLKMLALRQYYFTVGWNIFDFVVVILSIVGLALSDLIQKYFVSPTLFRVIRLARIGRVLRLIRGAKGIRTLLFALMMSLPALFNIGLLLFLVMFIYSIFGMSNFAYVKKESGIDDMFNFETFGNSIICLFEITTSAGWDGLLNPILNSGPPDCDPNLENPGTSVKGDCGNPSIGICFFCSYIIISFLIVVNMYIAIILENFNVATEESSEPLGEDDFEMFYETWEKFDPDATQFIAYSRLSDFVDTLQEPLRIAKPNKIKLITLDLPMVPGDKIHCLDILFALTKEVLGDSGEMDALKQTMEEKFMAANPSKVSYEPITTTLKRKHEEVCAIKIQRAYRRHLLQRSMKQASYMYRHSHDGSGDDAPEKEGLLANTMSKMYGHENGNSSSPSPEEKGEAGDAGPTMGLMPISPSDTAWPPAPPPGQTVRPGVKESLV

Take `C#CC[C@H](N)C(=O)N[C@@H](Cc1ccc(O)cc1)C(=O)N[C@H]1CSSC[C@@H]2NC(=O)[C@@H]3CSSC[C@@H](C(=O)N[C@@H](CCCNC(=N)N)C(=O)N[C@@H](CCCCN)C(=O)N[C@H](C(=O)N[C@@H](Cc4c[nH]c5ccccc45)C(N)=O)[C@@H](C)CC)NC(=O)[C@H](Cc4c[nH]c5ccccc45)NC(=O)[C@H](CC(C)C)NC(=O)[C@H](CCCCN)NC(=O)[C@H](CSSC[C@H](NC(=O)[C@H]([C@@H](C)O)NC(=O)[C@H](Cc4c[nH]c5ccccc45)NC(=O)[C@H](CCCC)NC(=O)[C@H](Cc4c[nH]c5ccccc45)NC(=O)[C@H](CCCCN)NC(=O)[C@H](CCC(N)=O)NC1=O)C(=O)N[C@@H](CC(=O)O)C(=O)N[C@@H](CO)C(=O)N[C@@H](CCCCN)C(=O)N[C@@H](CCCNC(=N)N)C(=O)N[C@@H](C)C(=O)N3)NC(=O)[C@H](CCCNC(=N)N)NC(=O)[C@H](CC(C)C)NC(=O)CNC(=O)[C@H](CCC(=O)O)NC2=O` [compound 296]: the IC50 was 37 nM at hNav1.4 (Table 12, PatchXpress, tonic block, read-out: PX hNav1.4 Tonic IC50); 2290 nM at hNav1.5 (Table 12, PatchXpress, tonic block, read-out: PX hNav1.5 Tonic IC50); 4.79 nM on hNav1.7. Moreover, the Nav1.4/Nav1.7 on hNav1.4 (Table 12) is listed as 8. Also, the Nav1.5/Nav1.7 on hNav1.5 (Table 12) came out at 479.
For `C#CC[C@H](N)C(=O)N[C@H]1CSSC[C@@H]2NC(=O)[C@@H]3CSSC[C@@H](C(=O)N[C@@H](CCCNC(=N)N)C(=O)N[C@@H](CCCCN)C(=O)N[C@H](C(=O)N[C@H](C(N)=O)[C@@H](C)CC)[C@@H](C)CC)NC(=O)[C@H](Cc4c[nH]c5ccccc45)NC(=O)[C@H](CC(C)C)NC(=O)[C@H](CCCCN)NC(=O)[C@H](CSSC[C@H](NC(=O)[C@H]([C@@H](C)O)NC(=O)[C@H](Cc4c[nH]c5ccccc45)NC(=O)[C@H](CCCC)NC(=O)[C@H](Cc4c[nH]c5ccccc45)NC(=O)[C@H](CCCCN)NC(=O)[C@H](CCC(N)=O)NC1=O)C(=O)N[C@@H](CC(=O)O)C(=O)N[C@@H](CO)C(=O)N[C@@H](CCCCN)C(=O)N[C@@H](CCCNC(=N)N)C(=O)N[C@@H](C)C(=O)N3)NC(=O)[C@H](CCC(=O)O)NC(=O)[C@H](CC(C)C)NC(=O)CNC(=O)[C@H](CCC(=O)O)NC2=O` [compound 343], the Nav1.4/Nav1.7 on hNav1.4 (Table 12) turned out to be 300. Also, the Nav1.5/Nav1.7 at hNav1.5 (Table 12) was determined as 1011.
As for `C#CC[C@@H]1NC(=O)[C@H](CC(=O)O)NC(=O)[C@@H]2CSSC[C@@H]3NC(=O)[C@H](CCC(=O)O)NC(=O)[C@H](CC(C)C)NC(=O)CNC(=O)[C@H](CCC(=O)O)NC(=O)[C@H](CSSC[C@H](NC(=O)[C@@H](N)Cc4ccc(O)cc4)C(=O)N[C@@H](CCC(N)=O)C(=O)N[C@@H](CCCCN)C(=O)N[C@@H](Cc4c[nH]c5ccccc45)C(=O)N[C@@H](CCCC)C(=O)N[C@@H](Cc4c[nH]c5ccccc45)C(=O)N[C@@H]([C@@H](C)O)C(=O)N2)NC(=O)[C@H](CSSC[C@@H](C(=O)N[C@@H](CCCNC(=N)N)C(=O)N[C@@H](CCCCN)C(=O)N[C@H](C(=O)N[C@H](C(N)=O)[C@@H](C)CC)[C@@H](C)CC)NC(=O)[C@H](Cc2c[nH]c4ccccc24)NC(=O)[C@H](CC(C)C)NC(=O)[C@H](CCCCN)NC3=O)NC(=O)[C@H](C)NC(=O)[C@H](CCCNC(=N)N)NC(=O)[C@H](CCCCN)NC1=O` [compound 344], the Nav1.4/Nav1.7 on hNav1.4 (Table 12) is recorded as 230. The Nav1.5/Nav1.7 at hNav1.5 (Table 12) is 193.
For `C#CC[C@@H]1NC(=O)[C@H](CCCNC(=N)N)NC(=O)[C@H](CCCCN)NC(=O)[C@H](CO)NC(=O)[C@H](CC(=O)O)NC(=O)[C@@H]2CSSC[C@@H]3NC(=O)[C@H](CCC(=O)O)NC(=O)[C@H](CC(C)C)NC(=O)CNC(=O)[C@H](CCC(=O)O)NC(=O)[C@H](CSSC[C@H](NC(=O)[C@@H](N)Cc4ccc(O)cc4)C(=O)N[C@@H](CCC(N)=O)C(=O)N[C@@H](CCCCN)C(=O)N[C@@H](Cc4c[nH]c5ccccc45)C(=O)N[C@@H](CCCC)C(=O)N[C@@H](Cc4c[nH]c5ccccc45)C(=O)N[C@@H]([C@@H](C)O)C(=O)N2)NC(=O)[C@H](CSSC[C@@H](C(=O)N[C@@H](CCCNC(=N)N)C(=O)N[C@@H](CCCCN)C(=O)N[C@H](C(=O)N[C@H](C(N)=O)[C@@H](C)CC)[C@@H](C)CC)NC(=O)[C@H](Cc2c[nH]c4ccccc24)NC(=O)[C@H](CC(C)C)NC(=O)[C@H](CCCCN)NC3=O)NC1=O` [compound 345], in that order: 232 and 638.
For `C#CC[C@@H]1NC(=O)[C@@H]2CSSC[C@H](NC(=O)[C@@H](N)Cc3ccc(O)cc3)C(=O)N[C@@H](CCC(N)=O)C(=O)N[C@@H](CCCCN)C(=O)N[C@@H](Cc3c[nH]c4ccccc34)C(=O)N[C@@H](CCCC)C(=O)N[C@@H](Cc3c[nH]c4ccccc34)C(=O)N[C@@H]([C@@H](C)O)C(=O)N[C@H]3CSSC[C@H](NC(=O)[C@H](CCC(=O)O)NC(=O)[C@H](CC(C)C)NC(=O)CNC1=O)C(=O)N[C@@H](CCCCN)C(=O)N[C@@H](CC(C)C)C(=O)N[C@@H](Cc1c[nH]c4ccccc14)C(=O)N[C@H](C(=O)N[C@@H](CCCNC(=N)N)C(=O)N[C@@H](CCCCN)C(=O)N[C@H](C(=O)N[C@H](C(N)=O)[C@@H](C)CC)[C@@H](C)CC)CSSC[C@H](NC(=O)[C@H](C)NC(=O)[C@H](CCCNC(=N)N)NC(=O)[C@H](CCCCN)NC(=O)[C@H](CO)NC(=O)[C@H](CC(=O)O)NC3=O)C(=O)N2` [compound 346], in that order: 29 and 102.
`C#CC[C@H](N)C(=O)NCCOCCOCCOCCOCCC(=O)NCCCC[C@@H]1NC(=O)[C@@H]2CSSC[C@H](NC(=O)[C@H](Cc3ccc(O)cc3)NC(=O)[C@@H](N)CC#N)C(=O)N[C@@H](CCC(N)=O)C(=O)N[C@@H](CCCCN)C(=O)N[C@@H](Cc3c[nH]c4ccccc34)C(=O)N[C@@H](CCCC)C(=O)N[C@@H](Cc3c[nH]c4ccccc34)C(=O)N[C@@H]([C@@H](C)O)C(=O)N[C@H]3CSSC[C@H](NC(=O)[C@H](CCCNC(=N)N)NC(=O)[C@H](CC(C)C)NC(=O)CNC1=O)C(=O)N[C@@H](CCCCN)C(=O)N[C@@H](CC(C)C)C(=O)N[C@@H](Cc1c[nH]c4ccccc14)C(=O)N[C@H](C(=O)N[C@@H](CCCNC(=N)N)C(=O)N[C@@H](CCCCN)C(=O)N[C@H](C(=O)N[C@H](C(N)=O)[C@@H](C)CC)[C@@H](C)CC)CSSC[C@H](NC(=O)[C@H](C)NC(=O)[C@H](CCCNC(=N)N)NC(=O)[C@H](CCCCN)NC(=O)[C@H](CO)NC(=O)[C@H](CC(=O)O)NC3=O)C(=O)N2` [compound 385]: the Nav1.4/Nav1.7 at hNav1.4 (Table 12) turned out to be 0. At hNav1.5 (Table 12), the Nav1.5/Nav1.7 worked out at 0.
For the molecule `CCCC[C@@H]1NC(=O)[C@H](Cc2c[nH]c3ccccc23)NC(=O)[C@H](CCCCN)NC(=O)[C@H](CCC(N)=O)NC(=O)[C@@H](NC(=O)[C@H](Cc2ccc(O)cc2)NC(=O)[C@@H](N)Cc2cn(CCOCCOCCOCCOCCOCCOCCOCCOCCOCCOCCOCCNC(=O)CSCc3ccccc3)nn2)CSSC[C@@H]2NC(=O)[C@@H]3CSSC[C@@H](C(=O)N[C@@H](CCCNC(=N)N)C(=O)N[C@@H](CCCCN)C(=O)N[C@H](C(=O)N[C@H](C(N)=O)[C@@H](C)CC)[C@@H](C)CC)NC(=O)[C@H](Cc4c[nH]c5ccccc45)NC(=O)[C@H](CC(C)C)NC(=O)[C@H](CCCCN)NC(=O)[C@H](CSSC[C@H](NC(=O)[C@H]([C@@H](C)O)NC(=O)[C@H](Cc4c[nH]c5ccccc45)NC1=O)C(=O)N[C@@H](CC(=O)O)C(=O)N[C@@H](CO)C(=O)N[C@@H](CCCCN)C(=O)N[C@@H](CCCNC(=N)N)C(=O)N[C@@H](C)C(=O)N3)NC(=O)[C@H](CCCNC(=N)N)NC(=O)[C@H](CC(C)C)NC(=O)CNC(=O)[C@H](CCC(=O)O)NC2=O` [compound 427], the Nav1.4/Nav1.7 on hNav1.4 (Table 13) came out at 9. Also, the Nav1.5/Nav1.7 on hNav1.5 (Table 13) turned out to be 1416.
As to `C#CC[C@H](N)C(=O)NCCCC[C@@H]1NC(=O)[C@H](CCCNC(=N)N)NC(=O)[C@H](CCCCN)NC(=O)[C@H](CO)NC(=O)[C@H](CC(=O)O)NC(=O)[C@@H]2CSSC[C@@H]3NC(=O)[C@H](CCCNC(=N)N)NC(=O)[C@H](CC(C)C)NC(=O)CNC(=O)[C@H](CCC(=O)O)NC(=O)[C@H](CSSC[C@H](NC(=O)[C@H](Cc4ccc(O)cc4)NC(=O)[C@@H](N)CC#N)C(=O)N[C@@H](CCC(N)=O)C(=O)N[C@@H](CCCCN)C(=O)N[C@@H](Cc4c[nH]c5ccccc45)C(=O)N[C@@H](CC(C)C)C(=O)N[C@@H](Cc4c[nH]c5ccccc45)C(=O)N[C@@H]([C@@H](C)O)C(=O)N2)NC(=O)[C@H](CSSC[C@@H](C(=O)N[C@@H](CCCNC(=N)N)C(=O)N[C@@H](CCCCN)C(=O)N[C@@H](CCC(=O)O)C(=O)N[C@H](C(N)=O)[C@@H](C)CC)NC(=O)[C@H](Cc2c[nH]c4ccccc24)NC(=O)[C@H](CC(C)C)NC(=O)[C@H](CCCCN)NC3=O)NC1=O` [compound 449], the Nav1.4/Nav1.7 on hNav1.4 (Table 12) came out at 111. Further, at hNav1.5 (Table 12), the Nav1.5/Nav1.7 was determined as 1038.
In the case of `CCCC[C@@H]1NC(=O)[C@H](Cc2c[nH]c3ccccc23)NC(=O)[C@H](CCCCN)NC(=O)[C@H](CCC(N)=O)NC(=O)[C@@H](NC(=O)[C@H](Cc2ccc(O)cc2)NC(=O)[C@H](CC#N)NC(=O)[C@@H](N)CCCCN)CSSC[C@@H]2NC(=O)[C@@H]3CSSC[C@@H](C(=O)N[C@@H](CCCNC(=N)N)C(=O)N[C@@H](CCCCN)C(=O)N[C@@H](CCC(=O)O)C(=O)N[C@H](C(N)=O)[C@@H](C)CC)NC(=O)[C@H](Cc4c[nH]c5ccccc45)NC(=O)[C@H](CC(C)C)NC(=O)[C@H](CCCCN)NC(=O)[C@H](CSSC[C@H](NC(=O)[C@H]([C@@H](C)O)NC(=O)[C@H](Cc4c[nH]c5ccccc45)NC1=O)C(=O)N[C@@H](CC(=O)O)C(=O)N[C@@H](CO)C(=O)N[C@@H](CCCCN)C(=O)N[C@@H](CCCNC(=N)N)C(=O)N[C@@H](CCCCNC(=O)[C@@H](N)Cc1cn(CCOCCOCCOCCOCCOCCOCCOCCOCCOCCOCCN)nn1)C(=O)N3)NC(=O)[C@H](CCCNC(=N)N)NC(=O)[C@H](CC(C)C)NC(=O)CNC(=O)[C@H](CCC(=O)O)NC2=O` [compound 891], on hNav1.4 (Table 13), the Nav1.4/Nav1.7 turned out to be 66. Further, the Nav1.5/Nav1.7 on hNav1.5 (Table 13) stood at 655.
